Source: patent US11959486B2, “Stable liquid formulation of AMG 416 (etelcalcetide)” (AMGEN INC., priority 2013, dated 2024)
Like-named read-outs stand apart in the source and are kept apart here.

How the values were obtained:
physchem = details: succinate buffered saline, pH 4.5
Description: In this study, the solubility of AMG 416 in succinate buffered-saline was investigated. […] After briefly vortexing, a clear solution was obtained with a nominal concentration of 400 mg/mL. Because expansion of the solution volume was not determined, the solubility of AMG 416 can be conservatively stated as at least 200 mg/mL. Although the maximal solubility was not determined in this experiment, AMG 416 is soluble in pH 4.5 succinate buffered saline to concentrations of at least 200 mg/mL.

[1] = Concentration dependent stability in 25 mM succinate-buffered saline pH 4.5, HPLC purity, with Arrhenius extrapolation (Example 2); format: physicochemical; details: for Degradation at 29 days, 40 C / Degradation at 29 days, RT: pH 4.5; for Predicted extent of degradation at 1 yr 5° C. / Predicted extent of degradation at 1 yr RT / Predicted extent of degradation at 2 yr 5° C. / Predicted extent of degradation at 2 yr RT: pH 4.5 SBS, from RT 29-day data
Description: In this study, the stability of AMG 416 over a range of concentrations in succinate-buffered saline (pH 4.5) was investigated. The solution of […] AMG 416 from Example 1, supra, was diluted further with 200 μL of succinate-buffered saline (pH 4.5) to a nominal concentration of 200 mg/mL, which was serially diluted with succinate-buffered saline (pH 4.5) to 66, 20, 6.7, 2.2 and 0.67 mg/mL. The samples were kept at room temperature (i.e., about 25° C.) and aliquots were analyzed by HPLC at intervals up to 29 days. A second series of AMG 416 samples covering the concentration range 20 to 0.67 mg/mL were incubated at 40° C. and analyzed in the same manner.
The room temperature 29-day data from Table 1 was extrapolated to the stated time period by assuming linear degradation kinetics. Room temperature data was extrapolated to 5° C. A 20° C. difference was assumed, equivalent to a 4-fold lower rate of degradation. Extrapolations were carried out using a simple application of the Arrhenius equation, where at 10° C. rise in temperature provides a 2-fold increase in reaction rate, assuming the same reaction mechanism and that activation energy for each relevant reaction is around 50 kJ/mol.
Comparison of the data shown in Tables 1 and 2 allows assessment of temperature increase as a tool to predict the long-term stability of AMG 416 solutions.

[2] = Stability in buffered solutions at pH 2.25, 2.5, 3.0 and 3.5, RP-HPLC purity and degradants (Example 6)
Description: In this study, the stability of a liquid formulation of AMG 416 under low pH conditions was investigated. Succinate-buffered saline (10 mM, pH 3.5) was prepared by dissolving 59 mg of succinic acid in 45 ml of lab processed (deionized) water and adjusting the pH to 3.5 using 1N HCl and 1N NaOH as needed, and q.s. to 50 ml. In the same way, a 10 mM, pH 3.5 sodium lactate (56 mg/50 mL) buffer solution was prepared.
NaCl (90 mg) was added to one portion and mannitol (500 mg) was added to the other. Each 10 mL portion was split again into two equal 5 mL portions and the pH was adjusted to 2.25 and 3.5, respectively, with 1N HCl and 1N NaOH. In the same way, four 5 mL solutions were prepared using lactate buffer. 1.0 mL of each of the (eight) resulting solutions was added to 3 serum sample vials. In addition, the remaining pH 2.25, succinate-buffered AMG 416 solution containing NaCl was adjusted to pH 2.5 and 0.5 mL aliquots were added to 3 serum sample vials and the remaining pH 3.5 succinate buffered solution with NaCl was adjusted to pH 3.0 and 0.5 mL aliquots were added to 3 serum sample vials.
At each time point (0, 2, 8, 12 and 24 weeks) all 30 samples were retrieved from storage, equilibrated to room temperature (about 25° C.), and a 100 μL aliquot was diluted to 0.5 mg/mL with water for RP-HPLC analysis. […]

[3] = for Degradation at 2 y: 3.4 mg/mL in succinate-buffered saline
Description: In this study, the long term stability of a liquid formulation of AMG 416, at a concentration of 3.4 mg/mL, was determined over a range of pH in succinate-buffered saline. USP purified water (1200 mL) was dispensed into a glass beaker. Sodium succinate (4.05 g) and sodium chloride (13.5 g) were added and stirred to dissolve. The pH was adjusted to 2.5 with 1N NaOH and/or 1N HCl as required. […] The solution was divided into three portions and the pH for each portion was adjusted to 2.5, 3.0 and 3.5, respectively. Each solution was filtered separately through 0.22 micron PVDF filter and dispense 2 mL to 5-cc vials. After being stoppered, sealed, and labeled, the vials were place in designated stability chambers at 5° C.±3, 25° C.±2, and 40° C.±2. Samples were retrieved according to schedule and diluted with deionized water to 1.0 mg/mL for HPLC analysis.

CC(=O)N[C@H](CSSC[C@H](N)C(=O)O)C(=O)N[C@H](C)C(=O)N[C@H](CCCNC(=N)N)C(=O)N[C@H](CCCNC(=N)N)C(=O)N[C@H](CCCNC(=N)N)C(=O)N[C@H](C)C(=O)N[C@H](CCCNC(=N)N)C(N)=O [AMG 416, N-acetyl-D-cysteinyl-D-alanyl-D-arginyl-D-arginyl-D-arginyl-D-alanyl-D-arginamide disulfide with L-cysteine]
solubility (physchem): ≥ 200 mg/mL
Degradation at 29 days, 40 C ([1]; 0.67 mg/mL): 5.0%
Degradation at 29 days, RT ([1]; 0.67 mg/mL): 0.1%
Predicted extent of degradation at 1 yr 5° C. ([1]; 0.67 mg/mL): 0.3%
Predicted extent of degradation at 1 yr RT ([1]; 0.67 mg/mL): 1.4%
Predicted extent of degradation at 2 yr 5° C. ([1]; 0.67 mg/mL): 0.7%
Predicted extent of degradation at 2 yr RT ([1]; 0.67 mg/mL): 2.7%
Degradation at 29 days, 40 C ([1]; 2.2 mg/mL): 5.0%
Degradation at 29 days, RT ([1]; 2.2 mg/mL): 0.2%
Predicted extent of degradation at 1 yr 5° C. ([1]; 2.2 mg/mL): 0.7%
Predicted extent of degradation at 1 yr RT ([1]; 2.2 mg/mL): 2.6%
Predicted extent of degradation at 2 yr 5° C. ([1]; 2.2 mg/mL): 1.3%
Predicted extent of degradation at 2 yr RT ([1]; 2.2 mg/mL): 5.2%
Degradation at 29 days, 40 C ([1]; 6.7 mg/mL): 9.4%
Degradation at 29 days, RT ([1]; 6.7 mg/mL): 0.5%
Predicted extent of degradation at 1 yr 5° C. ([1]; 6.7 mg/mL): 1.7%
Predicted extent of degradation at 1 yr RT ([1]; 6.7 mg/mL): 7.0%
Predicted extent of degradation at 2 yr 5° C. ([1]; 6.7 mg/mL): 3.5%
Predicted extent of degradation at 2 yr RT ([1]; 6.7 mg/mL): 13.9%
Degradation at 29 days, 40 C ([1]; 20 mg/mL): 26.7%
Degradation at 29 days, RT ([1]; 20 mg/mL): 0.9%
Predicted extent of degradation at 1 yr 5° C. ([1]; 20 mg/mL): 2.6%
Predicted extent of degradation at 1 yr RT ([1]; 20 mg/mL): 10.4%
Predicted extent of degradation at 2 yr 5° C. ([1]; 20 mg/mL): 5.2%
Predicted extent of degradation at 2 yr RT ([1]; 20 mg/mL): 20.9%
Predicted extent of degradation at 1 yr 5° C. ([1]; 66 mg/mL): 25.0%
Predicted extent of degradation at 1 yr RT ([1]; 66 mg/mL): >100%
Predicted extent of degradation at 2 yr 5° C. ([1]; 66 mg/mL): 50.1%
Predicted extent of degradation at 2 yr RT ([1]; 66 mg/mL): >100%
pH of maximal stability ([2]; 5 mg/mL solutions, Example 6): 3.0±0.5
predicted total degradation over 2 years under refrigerated conditions ([2]; liquid formulations at pH 3.0): 2-4%
Degradation at 2 y ([3]; pH 2.5, 5° C.): 4.4%
Degradation at 2 y ([3]; pH 2.5, 25° C.): 30.7%
Degradation at 2 y ([3]; pH 2.5, 40° C.): 78.8%
Degradation at 2 y ([3]; pH 3, 5° C.): 1.5%
Degradation at 2 y ([3]; pH 3, 25° C.): 14.6%
Degradation at 2 y ([3]; pH 3, 40° C.): 60.0%
Degradation at 2 y ([3]; pH 3.5, 5° C.): 0.9%
Degradation at 2 y ([3]; pH 3.5, 25° C.): 10.0%
Degradation at 2 y ([3]; pH 3.5, 40° C.): 53.1%
stability over shelf-life ([3]; refrigerated conditions): adequate stability of AMG 416 over at least a two year shelf-life
